Reference: ChEMBL document CHEMBL5344416, “Phenothiazines as anti-cancer agents: SAR overview and synthetic strategies” (Eur J Med Chem, 2023)
Values belong to the molecule of their own block, whether it stands above or below them.

Tests used:
TC-32 [1] = assay: Cytotoxicity against human TC-32 cells assessed as reduction in cell viability; type: functional, cell-based
MCF7 [2] = assay: Anticancer activity against human MCF7 cells assessed as cell growth inhibition incubated for 48 hrs by MTT assay; type: functional, cell-based; details: MCF7, 48 h
MCF7 [3] = assay: Cytotoxicity against human MCF7 cells assessed as reduction in cell growth; type: functional, cell-based
SNB-19 [4] = assay: Anticancer activity against human SNB-19 cells assessed as reduction in cell growth by SRB assay; type: functional, cell-based
[5] = Cytotoxicity against human HFF-1 cells assessed as reduction of cell viability incubated for 72 hrs by CCK-8 assay; type: toxicity, cell-based
TC-32 [6] = assay: Cytotoxicity against human TC-32 cells assessed as reduction in cell viability incubated for 48 hrs by CellTiter-Blue reagent based […] assay; type: functional; details: TC-32, 48 h
SNB-19 [7] = assay: Antiproliferative activity against human SNB-19 cells assessed as cell growth inhibition incubated for 72 hrs by WST-1 assay; type: functional, cell-based; details: SNB-19, 72 h
T47D [8] = assay: Antiproliferative activity against human T47D cells assessed as cell growth inhibition after 48 hrs by SRB assay; type: functional, cell-based
MKN-28 = assay: Antiproliferative activity against human MKN-28 cells assessed as reduction in cell viability by MTT assay; type: functional, cell-based
MGC-803 = assay: Antiproliferative activity against human MGC-803 cells assessed as reduction in cell growth by MTT assay; type: functional, cell-based
MKN-45 = assay: Antiproliferative activity against human MKN-45 cells assessed as cell growth inhibition by MTT assay; type: functional, cell-based
MCF7 [9] = assay: Antiproliferative activity against human MCF7 cells assessed as cell growth inhibition by MTT assay; type: functional, cell-based
ASPC1 = assay: Anticancer activity against human ASPC1 cells assessed as reduction in cell growth incubated for 72 hrs by MTT assay; type: functional, cell-based; details: ASPC1, 72 h
[10] = Antioxidant activity assessed as DPPH radical scavenging activity incubated for 30 mins; type: functional
SW1990 = assay: Anticancer activity against human SW1990 cells assessed as reduction in cell viability incubated for 72 hrs by MTT assay; type: functional, cell-based; details: SW1990, 72 h
SNB-19 [11] = assay: Anticancer activity against human SNB-19 cells assessed as reduction in cell growth incubated for 48 hrs by SRB assay; type: functional, cell-based; details: SNB-19, 48 h
MDA-MB-231 [12] = assay: Anticancer activity against human MDA-MB-231 cells assessed as reduction in cell viability measured after 72 hrs by MTT assay; type: functional, cell-based; details: MDA-MB-231, 72 h
TC-32 [13] = assay: Anticancer activity against human TC-32 cells assessed as reduction in cell growth incubated for 48 hrs by SRB assay; type: functional, cell-based; details: TC-32, 48 h
SNB-19 [14] = assay: Antiproliferative activity against human SNB-19 cells assessed as reduction in cell proliferation incubated for 72 hrs by WST-1 assay; type: functional, cell-based; details: SNB-19, 72 h
MDA-MB-231 [15] = assay: Antiproliferative activity against human MDA-MB-231 cells assessed as reduction in cell proliferation incubated for 72 hrs by WST-1 assay; type: functional, cell-based; details: MDA-MB-231, 72 h
TC-32 [16] = assay: Antiproliferative activity against human TC-32 cells assessed as reduction in cell proliferation incubated for 72 hrs by WST-1 assay; type: functional, cell-based; details: TC-32, 72 h
U-251 = assay: Antiproliferative activity against human U-251 cells assessed as reduction in cell viability incubated for 48 hrs by MTT assay; type: functional, cell-based; details: U-251, 48 h
U-87 MG = assay: Antiproliferative activity against human U87 cells assessed as reduction in cell viability incubated for 48 hrs by MTT assay; type: functional, cell-based, U-87MG ATCC
CT26 [17] = assay: Antitumor activity against mouse CT26 cells assessed as tumor growth inhibition incubated for 4 hrs by MTT assay relative to control; type: functional; set-up: scale not given: the % may be the effect or the level left
CT26 [18] = assay: Antitumor activity against mouse CT26 cells assessed as reduction in cell viability incubated for 4 hrs by MTT assay; type: functional, cell-based; details: CT26, 4 h
MCF7 [19] = assay: Antitumor activity against human MCF7 cells assessed as inhibition of cell growth at 1000 ug measured after 48 hrs by spectrophotometric analysis relative to control; type: functional; set-up: scale not given: the % may be the effect or the level left; details: dose 1000 µg
MCF7 [20] = assay: Antitumor activity against human MCF7 cells assessed as increase in LDH level at 1000 ug relative to control; type: functional; details: dose 1000 µg
A549 = assay: Anticancer activity against human A549 cells assessed as inhibition of cell proliferation measured after 48 hrs by MTT assay; type: functional, cell-based; details: A549, 48 h
HepG2 = assay: Anticancer activity against human HepG2 cells assessed as inhibition of cell proliferation measured after 48 hrs by MTT assay; type: functional, cell-based; details: HepG2, 48 h
MCF7 [21] = assay: Anticancer activity against human MCF7 cells assessed as inhibition of cell growth incubated for 48 hrs by MTT assay; type: functional, cell-based; details: MCF7, 48 h
[22] = Antioxidant activity assessed as ABTS radical scavenging activity; type: functional
MCF7 [23] = assay: Cytotoxicity against human MCF7 cells assessed as reduction in cell viability by MTT assay; type: functional, cell-based
[24] = Antioxidant activity assessed as DPPH radical scavenging activity; type: functional
MCF7 [25] = assay: Cytotoxicity against human MCF7 cells assessed as reduction in cell growth incubated for 96 hrs by MTT assay; type: functional, cell-based; details: MCF7, 96 h
MDA-MB-468 = assay: Cytotoxicity against human MDA-MB-468 cells assessed as cell viability measured after 3 days by Cell Titer Blue assay; type: functional, cell-based; details: MDA-MB-468, 72 h
MDA-MB-231 [26] = assay: Cytotoxicity against human MDA-MB-231 cells assessed as reduction in cell viability incubated for 24 hrs by MTT assay; type: functional, cell-based; details: MDA-MB-231, 24 h
T47D [27] = assay: Cytotoxicity against human T47D cells assessed as reduction in cell viability after 48 hrs by MTT assay; type: functional, cell-based
SK-BR-3 = assay: Cytotoxicity against human SK-BR-3 cells assessed as cell growth inhibition incubated for 48 hrs by WST-1 assay; type: functional, cell-based; details: SK-BR-3, 48 h
[28] = Cytotoxicity in human MCF-10A cells assessed as reduction in cell viability incubated for 72 hrs by MTT assay; type: toxicity, cell-based

IC50 (T47D [8]): 9.6 µM
Structure (SMILES): CN1CCN(CC#CCN2c3ccncc3Sc3ccncc32)CC1
IC50 (TC-32 [6]): 35 µM
IC50 (SNB-19 [7]): 21.2 µM

IC50 (MKN-28): 2.7 µM
IC50 (MGC-803): 1.2 µM
IC50 (MKN-45): 3.5 µM
Structure (SMILES): COc1ccc(-n2cc(CN3c4ccccc4Sc4ccccc43)nn2)c([N+](=O)[O-])c1

IC50 (MCF7 [2]): 1.35 µM
Structure (SMILES): CSc1ccc2c(c1)N(CCCn1ccc(=O)[nH]c1=O)c1ccccc1S2

IC50 (CT26 [18]): 286 µM
Structure (SMILES): COCCOCCOCCOCCOCCOCCOCCOCCOCCOCCOCCOC(=O)CN1c2ccccc2Sc2ccccc21
Activity (CT26 [17]): 92%

IC50 (A549): 5.37 µM
IC50 (HepG2): 5.37 µM
Structure (SMILES): COc1ccc(N/N=C2/SC(N/N=C(\C)c3ccc4c(c3)Nc3ccccc3S4)=NC2=O)cc1

IC50 (MCF7 [21]): 3.45 µM
Structure (SMILES): COCCSc1nnc(CN2c3ccccc3Sc3ccc(Cl)cc32)s1

Continued, molecule first:

Structure (SMILES): c1cnc2c(c1)Nc1ccncc1S2
IC50 (TC-32 [1]): 0.72 µM
IC50 (MCF7 [2]): 8.3 µM
IC50 (MCF7 [3]): 0.46 µM
IC50 (SNB-19 [4]): 0.58 µM
IC50 at 72 h [5]: 38.6 µM

Structure (SMILES): CN(C)CCN1CCN(CCCN2c3ccccc3Sc3ccc(C(F)(F)F)cc32)CC1
IC50 (MCF7 [9]): 0.42 µM

Structure (SMILES): CCCCCN1c2ccccc2Sc2cc(/C=C(\C#N)C(N)=O)ccc21
IC50 (ASPC1): 25.3 µM
IC50 [10]: 37.3 µM
IC50 (SW1990): 13.3 µM

Structure (SMILES): CCN(C)CC#CCN1c2ccncc2Sc2ncccc21
IC50 (SNB-19 [11]): 0.11 µM
IC50 (MDA-MB-231 [12]): 2.81 µM
IC50 (TC-32 [13]): 1.53 µM

Structure (SMILES): C#CCN1c2ncccc2Sc2cccnc21
IC50 (SNB-19 [14]): 3.85 µM
IC50 (MDA-MB-231 [15]): 14.1 µM
IC50 (TC-32 [16]): 3.37 µM

Structure (SMILES): O=[N+]([O-])c1ccccc1S(=O)(=O)N1c2ccccc2Sc2ccc(Cl)cc21
IC50 (U-251): 9.29 µM
IC50 (U-87 MG): 5.12 µM

Structure (SMILES): CCN(CC)CC#CCN1c2ccncc2Sc2ncccc21
IC50 (SNB-19 [11]): 0.11 µM
IC50 (MDA-MB-231 [12]): 6.32 µM
IC50 (TC-32 [13]): 0.54 µM

Structure (SMILES): CN1c2ccccc2Sc2cc(/C=N/NC(=O)Cn3c4ccccc4c4ccccc43)ccc21
Activity (MCF7 [19]): 48%
Activity (MCF7 [20]): 48%

Structure (SMILES): C/C(=N\c1ccc(/N=N/c2ccccc2)cc1)c1ccc2c(c1)Nc1ccccc1S2
IC50 [22]: 41.1 µM
IC50 (MCF7 [23]): 34.6 µM
IC50 [24]: 37.3 µM

Structure (SMILES): CCN1c2ccc(-c3ccccc3)cc2Sc2cc(-c3nnc4ccccn34)ccc21
IC50 (MCF7 [25]): 6.2 µM
IC50 (MDA-MB-468): 9.7 µM
IC50 (MDA-MB-231 [26]): 19.4 µM
IC50 (T47D [27]): 11.7 µM
IC50 (SK-BR-3): 31.5 µM
IC50 at 72 h [28]: 13.4 µM
